Data published in patent publication US6180664A (priority 1996, dated 2001).

Key:
blood = details: cited from earlier work
[1] = test system: isolated rabbit aortic rings; test: tissue or blood

For `CCCCCCCCCCCCCCCCOCC(COP(=O)([O-])OCC[N+](C)(C)C)OC(C)=O` (stereo not shown) [platelet activation factor], the “concentration inducing platelet aggregation” value (blood) is listed as 0.1 nM and the concentration inducing vasodilation (blood) is listed as 0.1 nM.

Work on `CCOC(=O)C(CO[N+](=O)[O-])(CO[N+](=O)[O-])C(=O)OCC` [Bis-MA diethyl ester, Diethyl 2,2-bis(nitryloxymethyl)malonate] yielded an EC50 ([1]; Oryctolagus cuniculus, read-out: pD2 value (converted)) of 251 nM.

For `O=[N+]([O-])OCC(CO)(CO)CO` [PEMN, pentaerythrityl mononitrate], the pD2 value [1] was 5.
